Experimental data: US20160166540A1, “MODULATORS FOR ATP-BINDING CASSETTE TRANSPORTERS” (VERTEX PHARMACEUTICALS INCORPORATED, priority 2011, published 2016)

Molecular target: T1, ΔF508-CFTR (Homo sapiens, UniProt P13569, DEL508-508)
T1 construct: expressed in transfected cells
Assay: Membrane potential optical assay for ΔF508-CFTR correction (identification of correction compounds)
Format: cell-based
Details: NIH3T3; NIH 3T3 cells stably expressing ΔF508-CFTR; read-out: % Efficacy
From the text: Assays for Detecting and Measuring M508-CFTR Correction Properties of Compounds
Membrane potential optical methods for assaying ΔF508-CFTR modulation properties of compounds.
The assay utilizes fluorescent voltage sensing dyes to measure changes in membrane potential using a fluorescent plate reader (e.g., FLIPR III, Molecular Devices, Inc.) as a readout for increase in functional ΔF508-CFTR in NIH 3T3 cells. The driving force for the response is the creation of a chloride ion gradient in conjunction with channel activation by a single liquid addition step after the cells have previously been treated with compounds and subsequently loaded with a voltage sensing dye.
To identify small molecules that correct the trafficking defect associated with ˜F508-CFTR; a single-addition HTS assay format was developed. Assay Plates containing cells are incubated for ˜2-4 hours in tissue culture incubator at 37° C., S % CO2, 90% humidity. Cells are then ready for compound exposure after adhering to the bottom of the assay plates.
The cells were incubated in serum-free medium for 16-24 hrs in tissue culture incubator at 37° C., S % CO2, 90% humidity in the presence or absence (negative control) of test compound. […] The addition of Cl^−-free medium promoted Cl^− efflux in response to ΔF508-CFTR activation and the resulting membrane depolarization was optically monitored using voltage sensor dyes. […]

T1 sequence (P13569 with tags, fused parts or gaps DEL508-508): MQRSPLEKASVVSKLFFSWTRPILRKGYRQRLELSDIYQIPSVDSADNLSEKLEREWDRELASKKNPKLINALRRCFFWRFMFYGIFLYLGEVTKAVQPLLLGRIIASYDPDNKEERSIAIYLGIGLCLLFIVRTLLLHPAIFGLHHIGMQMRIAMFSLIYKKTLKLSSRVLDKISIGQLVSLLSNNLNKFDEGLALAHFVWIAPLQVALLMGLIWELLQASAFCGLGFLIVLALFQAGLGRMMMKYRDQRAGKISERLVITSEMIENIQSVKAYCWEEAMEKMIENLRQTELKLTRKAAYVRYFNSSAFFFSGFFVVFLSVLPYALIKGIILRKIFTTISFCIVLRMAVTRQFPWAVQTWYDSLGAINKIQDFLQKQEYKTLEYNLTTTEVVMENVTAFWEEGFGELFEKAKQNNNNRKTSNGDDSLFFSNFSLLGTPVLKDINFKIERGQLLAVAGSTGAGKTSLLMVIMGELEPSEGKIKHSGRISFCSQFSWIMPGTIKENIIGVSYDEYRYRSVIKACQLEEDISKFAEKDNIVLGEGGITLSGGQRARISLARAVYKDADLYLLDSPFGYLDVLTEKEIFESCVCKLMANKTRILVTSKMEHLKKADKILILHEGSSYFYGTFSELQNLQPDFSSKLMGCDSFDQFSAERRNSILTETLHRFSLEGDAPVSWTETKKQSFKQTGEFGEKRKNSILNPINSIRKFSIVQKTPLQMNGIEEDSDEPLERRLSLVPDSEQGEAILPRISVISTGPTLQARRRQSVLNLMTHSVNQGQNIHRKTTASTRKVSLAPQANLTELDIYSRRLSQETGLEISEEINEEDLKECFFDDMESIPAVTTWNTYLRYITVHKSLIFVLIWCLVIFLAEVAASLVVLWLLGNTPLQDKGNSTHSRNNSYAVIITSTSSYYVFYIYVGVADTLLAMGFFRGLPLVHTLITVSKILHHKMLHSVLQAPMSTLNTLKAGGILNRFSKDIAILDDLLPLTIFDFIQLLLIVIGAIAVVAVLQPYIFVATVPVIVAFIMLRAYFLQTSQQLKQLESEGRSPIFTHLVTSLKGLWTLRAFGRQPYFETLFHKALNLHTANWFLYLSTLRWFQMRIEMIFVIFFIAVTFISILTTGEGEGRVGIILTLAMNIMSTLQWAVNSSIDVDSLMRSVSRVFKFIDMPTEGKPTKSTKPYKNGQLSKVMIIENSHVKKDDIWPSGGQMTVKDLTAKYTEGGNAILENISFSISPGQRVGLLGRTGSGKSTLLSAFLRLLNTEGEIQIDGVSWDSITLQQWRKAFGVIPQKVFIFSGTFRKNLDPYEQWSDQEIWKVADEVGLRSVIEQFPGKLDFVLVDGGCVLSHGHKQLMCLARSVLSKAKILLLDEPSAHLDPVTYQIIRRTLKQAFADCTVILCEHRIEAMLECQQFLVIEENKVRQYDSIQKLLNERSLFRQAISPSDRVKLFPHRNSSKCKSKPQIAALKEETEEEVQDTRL

Emax: > 100%
SMILES: CC1(C)c2cc3cc(NC(=O)C4(c5ccc6c(c5)OC(F)(F)O6)CC4)c(F)cc3n2C[C@H](CO)OC1O (stereo partly drawn) [1-(2,2-difluorobenzo[d][1,3]dioxol-5-yl)-N-((4R)-8-fluoro-2-hydroxy-4-(hydroxymethyl)-1,1-dimethyl-1,2,4,5-tetrahydro-[1,4]oxazepino[4,5-a]indol-9-yl)cyclopropanecarboxamide]
